Measured values reported in patent US11174253B2, “Compound and pharmaceutical composition containing the same” (ALPHALA CO., LTD., priority 2017, dated 2021).

test system: hepatocellular carcinoma cell line Hep3B; test: Growth inhibition of Hep3B cells, 48 hr treatment, Hoechst 33342 nucleus count (GE InCell 2200); type: cell-based; conditions: Homo sapiens, Table 1, ratio of number of tumor cells treated with 10 μM compound to non-treated cells
Method: The potency of selected compounds was defined by the growth inhibition ability to the hepatocellular carcinoma cell line Hep3B. The Hep3B cells were treated with selected compounds for 48 hr under 37° C., 5% CO2, and 95% relative humidity.
The number of treated cells was determined by GE InCell 2200 system, and treated cells were stained with Hoechst 33342 which can reveal the remained nucleus in culture plate. The proportion of survival cells then were calculated with the ratio of treated/non-treated cells. The growth inhibition/cytotoxic effect of selected compounds were evaluated by the following protocol of NCI-60 screening platform. The human tumor cell lines are plating on a 96 well plate in a fixed density 24 hr prior compound treatment. Compounds with multiple concentrations are then added into each well for further 48 hr incubation. Cell viability is assessed by MTS method and the potency of compound is represented by GI50 and LC50 calculated by MTS result.
Herein, the “Ratio in 10 μM (%)” in the following Tables 1-6 refers to the ratio of the number of tumor cells treated with 10 μM of selected compounds to the number of non-treated tumer cells.

Q: CC(C)Oc1ccc(-c2nnc(NC(=O)Cc3ccc4nc(N)sc4c3)s2)cc1 [Compound 1-14, 2-(2-aminobenzo[d]thiazol-6-yl)-N-(5-(4-isopropoxyphenyl)-1,3,4-thiadiazol-2-yl)acetamide] was tested. Which viability at 10 µM did it give?
A: 71%

Q: Nc1nc2ccc(CC(=O)Nc3nnc(-c4ccc([N+](=O)[O-])cc4)s3)cc2s1 [Compound 1-8, 2-(2-aminobenzo[d]thiazol-6-yl)-N-(5-(4-nitrophenyl)-1,3,4-thiadiazol-2-yl)acetamide] was tested. Which viability at 10 µM did it give?
A: 76%

Q: With CCOc1ccncc1-c1nnc(NC(=O)Cc2ccc3nc(N)sc3c2)s1 [Compound 1-34, 2-(2-aminobenzo[d]thiazol-6-yl)-N-(5-(4-ethoxypyridin-3-yl)-1,3,4-thiadiazol-2-yl)acetamide] as the molecule, how does the viability at 10 µM read?
A: 78%

same assay, conditions: Homo sapiens, Table 4, ratio of number of tumor cells treated with 10 μM compound to non-treated cells

Q: How did the viability at 10 µM turn out when CCOc1ccc(-c2cnc(NC(=O)Cc3ccc4nc(N)sc4c3)[nH]2)c(OCC)c1 [Compound 4-4, 2-(2-aminobenzo[d]thiazol-6-yl)-N-(5-(2,4-diethoxyphenyl)-1H-imidazol-2-yl)acetamide] was run?
A: 40%

same assay, conditions: Homo sapiens, Table 5, ratio of number of tumor cells treated with 10 μM compound to non-treated cells

Q: CCCc1ccc(Oc2sc(NC(=O)c3ccc([N+](=O)[O-])s3)nc2-c2ccc(C(C)(C)C)cc2)cc1 [Compound 5-88, N-(4-(4-(tert-butyl)phenyl)-5-(4-propylphenoxy)thiazol-2-yl)-5-nitrothiophene-2-carboxamide] was tested. Which viability at 10 µM did it give?
A: 36%

Q: For CCCOc1ccc(-c2nc(NC(=O)c3ccc([N+](=O)[O-])s3)sc2Oc2ccc(F)cc2F)cc1 [Compound 5-37, N-(5-(2,4-difluorophenoxy)-4-(4-propoxyphenyl)thiazol-2-yl)-5-nitrothiophene-2-carboxamide], which viability at 10 µM is on record?
A: 38%

Q: For CCCOc1ccc(-c2nc(NC(=O)c3ccc([N+](=O)[O-])s3)sc2Oc2cccnc2)cc1 [Compound 5-13, 5-nitro-N-(4-(4-propoxyphenyl)-5-(pyridin-3-yloxy)thiazol-2-yl)thiophene-2-carboxamide], which viability at 10 µM is on record?
A: 53%

Q: With O=C(Nc1nc(-c2ccc(Br)s2)c(Oc2ccccc2)s1)c1ccc([N+](=O)[O-])s1 [Compound 5-42, N-(4-(5-bromothiophen-2-yl)-5-phenoxythiazol-2-yl)-5-nitrothiophene-2-carboxamide] as the molecule, how does the viability at 10 µM read?
A: 55%

Q: How did the viability at 10 µM turn out when CCCCc1ccc(-c2nc(NC(=O)c3ccc([N+](=O)[O-])s3)sc2Oc2ccc(F)cc2)cc1 [Compound 5-94, N-(4-(4-butylphenyl)-5-(4-fluorophenoxy)thiazol-2-yl)-5-nitrothiophene-2-carboxamide] was run?
A: 32%

Q: With CCCc1ccc(-c2nc(NC(=O)c3ccc([N+](=O)[O-])s3)sc2Oc2ccccc2)cc1 [Compound 5-77, 5-nitro-N-(5-phenoxy-4-(4-propylphenyl)thiazol-2-yl)thiophene-2-carboxamide] as the molecule, how does the viability at 10 µM read?
A: 33%

Q: Which viability at 10 µM does the source give for CCCCc1ccc(-c2nc(NC(=O)c3ccc([N+](=O)[O-])s3)sc2Oc2ccccc2)cc1 [Compound 5-79, N-(4-(4-butylphenyl)-5-phenoxythiazol-2-yl)-5-nitrothiophene-2-carboxamide] here?
A: 31%

Q: How did the viability at 10 µM turn out when CCCCOc1ccc(-c2nc(NC(=O)c3ccc([N+](=O)[O-])s3)sc2Oc2ccc(C(C)(C)C)cc2)cc1 [Compound 5-90, N-(4-(4-butoxyphenyl)-5-(4-(tert-butyl)phenoxy)thiazol-2-yl)-5-nitrothiophene-2-carboxamide] was run?
A: 48%

Q: How did the viability at 10 µM turn out when Cc1cc(Oc2sc(NC(=O)c3ccc([N+](=O)[O-])s3)nc2-c2ccc(C(C)(C)C)cc2)cc(C)c1Br [Compound 5-99, N-(5-(4-bromo-3,5-dimethylphenoxy)-4-(4-(tert-butyl)phenyl)thiazol-2-yl)-5-nitrothiophene-2-carboxamide] was run?
A: 40%

Q: With O=C(Nc1nc(-c2ccc(OC(F)(F)F)cc2)c(Oc2ccccc2)s1)c1ccc([N+](=O)[O-])s1 [Compound 5-84, 5-nitro-N-(5-phenoxy-4-(4-(trifluoromethoxy)phenyl)thiazol-2-yl)thiophene-2-carboxamide] as the molecule, how does the viability at 10 µM read?
A: 34%

Q: For CCCOc1ccc(-c2nc(NC(=O)c3ccc([N+](=O)[O-])s3)sc2Oc2cc(C)c(Br)c(C)c2)cc1 [Compound 5-28, N-(5-(4-bromo-3,5-dimethylphenoxy)-4-(4-propoxyphenyl)thiazol-2-yl)-5-nitrothiophene-2-carboxamide], which viability at 10 µM is on record?
A: 32%

Q: Cc1cc(Oc2sc(NC(=O)c3ccc([N+](=O)[O-])s3)nc2-c2ccc(F)cc2)cc(C)c1Br [Compound 5-100, N-(5-(4-bromo-3,5-dimethylphenoxy)-4-(4-fluorophenyl)thiazol-2-yl)-5-nitrothiophene-2-carboxamide] was tested. Which viability at 10 µM did it give?
A: 30%

Q: Which viability at 10 µM does the source give for CCCOc1ccc(Oc2sc(NC(=O)c3ccc([N+](=O)[O-])s3)nc2-c2ccc(C(C)(C)C)cc2)cc1 [Compound 5-95, N-(4-(4-(tert-butyl)phenyl)-5-(4-propoxyphenoxy)thiazol-2-yl)-5-nitrothiophene-2-carboxamide] here?
A: 38%

Q: CCOc1ccccc1-c1nc(NC(=O)c2ccc([N+](=O)[O-])s2)sc1Oc1ccccc1 [Compound 5-5, N-(4-(2-ethoxyphenyl)-5-phenoxythiazol-2-yl)-5-nitrothiophene-2-carboxamide] was tested. Which viability at 10 µM did it give?
A: 47%

Q: For O=C(Nc1nc(-c2ccc(F)cc2)c(Oc2ccc(OC(F)(F)F)cc2)s1)c1ccc([N+](=O)[O-])s1 [Compound 5-33, N-(4-(4-fluorophenyl)-5-(4-(trifluoromethoxy)phenoxy)thiazol-2-yl)-5-nitrothiophene-2-carboxamide], which viability at 10 µM is on record?
A: 40%

Q: With CCOc1ccc(-c2nc(NC(=O)c3ccc([N+](=O)[O-])s3)sc2Oc2cccc(F)c2)cc1 [Compound 5-54, N-(4-(4-ethoxyphenyl)-5-(3-fluorophenoxy)thiazol-2-yl)-5-nitrothiophene-2-carboxamide] as the molecule, how does the viability at 10 µM read?
A: 35%

Q: How did the viability at 10 µM turn out when CCCCOc1ccc(-c2nc(NC(=O)c3ccc([N+](=O)[O-])s3)sc2Oc2ccc(CCC)cc2)cc1 [Compound 5-93, N-(4-(4-butoxyphenyl)-5-(4-propylphenoxy)thiazol-2-yl)-5-nitrothiophene-2-carboxamide] was run?
A: 45%

Q: For CCCCOc1ccc(-c2nc(NC(=O)c3ccc([N+](=O)[O-])s3)sc2Oc2ccccc2F)cc1 [Compound 5-72, N-(4-(4-butoxyphenyl)-5-(2-fluorophenoxy)thiazol-2-yl)-5-nitrothiophene-2-carboxamide], which viability at 10 µM is on record?
A: 43%

Q: Which viability at 10 µM does the source give for CCCCc1ccc(-c2nc(NC(=O)c3ccc([N+](=O)[O-])s3)sc2Oc2ccc(C(C)(C)CC)cc2)cc1 [Compound 5-104, N-(4-(4-butylphenyl)-5-(4-(tert-pentyl)phenoxy)thiazol-2-yl)-5-nitrothiophene-2-carboxamide] here?
A: 56%

same assay, conditions: Homo sapiens, Table 6, ratio of number of tumor cells treated with 10 μM compound to non-treated cells

Q: For CC(C)(C)c1ccc(-c2nc(NC(=O)c3ccc([N+](=O)[O-])s3)sc2-c2ccccc2Br)cc1 [Compound 6-57, N-(5-(2-bromophenyl)-4-(4-(tert-butyl)phenyl)thiazol-2-yl)-5-nitrothiophene-2-carboxamide], which viability at 10 µM is on record?
A: 29%

Q: How did the viability at 10 µM turn out when CC(C)(C)c1ccc(-c2nc(NC(=O)c3ccc([N+](=O)[O-])s3)sc2-c2ccc(F)cc2F)cc1 [Compound 6-39, N-(4-(4-(tert-butyl)phenyl)-5-(2,4-difluorophenyl)thiazol-2-yl)-5-nitrothiophene-2-carboxamide] was run?
A: 31%

Q: With CC(C)(C)c1ccc(-c2nc(NC(=O)c3ccc([N+](=O)[O-])s3)sc2-c2ccccc2F)cc1 [Compound 6-48, N-(4-(4-(tert-butyl)phenyl)-5-(2-fluorophenyl)thiazol-2-yl)-5-nitrothiophene-2-carboxamide] as the molecule, how does the viability at 10 µM read?
A: 45%

Q: O=C(Nc1nc(-c2ccc(Br)cc2)c(-c2ccccc2)s1)c1ccc([N+](=O)[O-])s1 [Compound 6-9, N-(4-(4-bromophenyl)-5-phenylthiazol-2-yl)-5-nitrothiophene-2-carboxamide] was tested. Which viability at 10 µM did it give?
A: 71%

Q: With CCOc1cc(-c2sc(NC(=O)c3ccc([N+](=O)[O-])s3)nc2-c2ccc(C)cc2)ccc1Br [Compound 6-20, N-(5-(4-bromo-3-ethoxyphenyl)-4-(p-tolyl)thiazol-2-yl)-5-nitrothiophene-2-carboxamide] as the molecule, how does the viability at 10 µM read?
A: 45%

Q: For CC(C)(C)c1ccc(-c2nc(NC(=O)c3ccc([N+](=O)[O-])s3)sc2-c2cccc(F)c2)cc1 [Compound 6-41, N-(4-(4-(tert-butyl)phenyl)-5-(3-fluorophenyl)thiazol-2-yl)-5-nitrothiophene-2-carboxamide], which viability at 10 µM is on record?
A: 36%

Q: Which viability at 10 µM does the source give for CC(C)(C)c1ccc(-c2nc(NC(=O)c3ccc([N+](=O)[O-])s3)sc2C#N)cc1 [Compound 6-50, N-(4-(4-(tert-butyl)phenyl)-5-cyanothiazol-2-yl)-5-nitrothiophene-2-carboxamide] here?
A: 53%

Q: How did the viability at 10 µM turn out when CCOc1ccc(-c2nc(NC(=O)c3ccc([N+](=O)[O-])s3)sc2-c2ccc(C(F)(F)F)cc2)cc1 [Compound 6-19, N-(4-(4-ethoxyphenyl)-5-(4-(trifluoromethyl)phenyl)thiazol-2-yl)-5-nitrothiophene-2-carboxamide] was run?
A: 26%

Q: How did the viability at 10 µM turn out when CCCOc1ccc(-c2nc(NC(=O)c3ccc([N+](=O)[O-])s3)sc2C(=O)N2CCOCC2)cc1 [Compound 6-29, N-(5-(morpholine-4-carbonyl)-4-(4-propoxyphenyl)thiazol-2-yl)-5-nitrothiophene-2-carboxamide] was run?
A: 58%

Q: With CC(C)(C)c1ccc(-c2nc(NC(=O)c3ccc([N+](=O)[O-])s3)sc2Br)cc1 [Compound 6-60, N-(5-bromo-4-(4-(tert-butyl)phenyl)thiazol-2-yl)-5-nitrothiophene-2-carboxamide] as the molecule, how does the viability at 10 µM read?
A: 45%
